Results from paper PMC9823097, “Dysregulation of PRMT5 in chronic lymphocytic leukemia promotes progression with high risk of Richter’s transformation” (Nature Communications, 2023).
Entries after “also recorded” stand apart in the source; their conditions may differ.

Assays:
Type in all cases: cell-based
[1] = system: Mec-1 cells; assay: Cell growth curves over 12 days, Mec-1
Method: (§1) Live cells/mL were counted on days 3, 6, 10, and 12. […] The split factor was calculated at indicated time points by dividing the counted cells/mL by 3E5. Cell growth was extrapolated over time by multiplying the subsequent cell count by the previous split factor. Cell growth is plotted as fold change relative to DMSO-treated cells.

[2] = system: HG3 cells; assay: Cell growth curves over 12 days, HG3
Method: as §1

[3] = system: HG3 CLL cell line; assay: Global symmetric dimethyl arginine (SDMA) western blot, HG3; details: HG3, EPZ015666 for 72hr
Description: Proteins extracted from whole-cell lysates were resolved by SDS-PAGE and transferred on nitrocellulose membrane as previously described. CpG685 oligonucleotide was obtained from the OSU Cytogenetics Core Lab. Antibodies used for immunoblots included anti-human PRMT5 (Abcam #ab109451), GAPDH (Millipore Sigma #MAB374), SDMA (Cell Signaling Technology #13222), c-Myc (Cell Signaling Technology #5605S), and β-Actin (Cell Signaling Technology #4967S). Cas9-mediated doxycycline-inducible knockout of PRMT5 utilized a targeted sgRNA (guide sequence: […], PAM: GGG).

O=C(NC[C@H](O)CN1CCc2ccccc2C1)c1cc(NC2COC2)ncn1 [EPZ015666]
Rep 1 Live Cells [Fold Change] ([1]; Mec-1, 1 nM, day 0): 1 Fold Change | Rep 2 Live Cells [Fold Change] ([1]; Mec-1, 1 nM, day 0): 1 Fold Change | Rep 1 Live Cells [Fold Change] ([1]; Mec-1, 1 nM, day 3): 8.617 Fold Change | Rep 2 Live Cells [Fold Change] ([1]; Mec-1, 1 nM, day 3): 9.35 Fold Change | Rep 1 Live Cells [Fold Change] ([1]; Mec-1, 1 nM, day 6): 72.0928 Fold Change | Rep 2 Live Cells [Fold Change] ([1]; Mec-1, 1 nM, day 6): 74.5 Fold Change | Rep 1 Live Cells [Fold Change] ([1]; Mec-1, 1 nM, day 10): 633.719 Fold Change | Rep 2 Live Cells [Fold Change] ([1]; Mec-1, 1 nM, day 10): 819 Fold Change | Rep 1 Live Cells [Fold Change] ([1]; Mec-1, 1 nM, day 12): 3882.24 Fold Change | Rep 2 Live Cells [Fold Change] ([1]; Mec-1, 1 nM, day 12): 4970 Fold Change | Rep 1 Live Cells [Fold Change] ([1]; Mec-1, 10 nM, day 0): 1 Fold Change | Rep 2 Live Cells [Fold Change] ([1]; Mec-1, 10 nM, day 0): 1 Fold Change | Rep 1 Live Cells [Fold Change] ([1]; Mec-1, 10 nM, day 3): 7.233 Fold Change | Rep 2 Live Cells [Fold Change] ([1]; Mec-1, 10 nM, day 3): 10.3 Fold Change | Rep 1 Live Cells [Fold Change] ([1]; Mec-1, 10 nM, day 6): 40.9889 Fold Change | Rep 2 Live Cells [Fold Change] ([1]; Mec-1, 10 nM, day 6): 85.8 Fold Change | Rep 1 Live Cells [Fold Change] ([1]; Mec-1, 10 nM, day 10): 534.674 Fold Change | Rep 2 Live Cells [Fold Change] ([1]; Mec-1, 10 nM, day 10): 1290 Fold Change | Rep 1 Live Cells [Fold Change] ([1]; Mec-1, 10 nM, day 12): 1546.22 Fold Change | Rep 2 Live Cells [Fold Change] ([1]; Mec-1, 10 nM, day 12): 3960 Fold Change | Rep 1 Live Cells [Fold Change] ([1]; Mec-1, 100 nM, day 0): 1 Fold Change | Rep 2 Live Cells [Fold Change] ([1]; Mec-1, 100 nM, day 0): 1 Fold Change | Rep 3 Live Cells [Fold Change] ([1]; Mec-1, 100 nM, day 0): 1 Fold Change | Rep 4 Live Cells [Fold Change] ([1]; Mec-1, 100 nM, day 0): 1 Fold Change | Rep 1 Live Cells [Fold Change] ([1]; Mec-1, 100 nM, day 3): 10.3 Fold Change | Rep 2 Live Cells [Fold Change] ([1]; Mec-1, 100 nM, day 3): 8.66 Fold Change | Rep 3 Live Cells [Fold Change] ([1]; Mec-1, 100 nM, day 3): 6.583 Fold Change | Rep 4 Live Cells [Fold Change] ([1]; Mec-1, 100 nM, day 3): 8.22 Fold Change | Rep 1 Live Cells [Fold Change] ([1]; Mec-1, 100 nM, day 6): 88.992 Fold Change | Rep 2 Live Cells [Fold Change] ([1]; Mec-1, 100 nM, day 6): 55.1353 Fold Change | Rep 3 Live Cells [Fold Change] ([1]; Mec-1, 100 nM, day 6): 56.8361 Fold Change | Rep 4 Live Cells [Fold Change] ([1]; Mec-1, 100 nM, day 6): 60.1 Fold Change | Rep 2 Live Cells [Fold Change] ([1]; Mec-1, 100 nM, day 10): 518.272 Fold Change | Rep 3 Live Cells [Fold Change] ([1]; Mec-1, 100 nM, day 10): 601.592 Fold Change | Rep 4 Live Cells [Fold Change] ([1]; Mec-1, 100 nM, day 10): 484 Fold Change | Rep 1 Live Cells [Fold Change] ([1]; Mec-1, 100 nM, day 12): 615.119 Fold Change | Rep 2 Live Cells [Fold Change] ([1]; Mec-1, 100 nM, day 12): 1560 Fold Change | Rep 3 Live Cells [Fold Change] ([1]; Mec-1, 100 nM, day 12): 1676.06 Fold Change | Rep 4 Live Cells [Fold Change] ([1]; Mec-1, 100 nM, day 12): 3230 Fold Change | Rep 1 Live Cells [Fold Change] ([1]; Mec-1, 1 µM, day 0): 1 Fold Change | Rep 2 Live Cells [Fold Change] ([1]; Mec-1, 1 µM, day 0): 1 Fold Change | Rep 3 Live Cells [Fold Change] ([1]; Mec-1, 1 µM, day 0): 1 Fold Change | Rep 4 Live Cells [Fold Change] ([1]; Mec-1, 1 µM, day 0): 1 Fold Change | Rep 1 Live Cells [Fold Change] ([1]; Mec-1, 1 µM, day 3): 7.867 Fold Change | Rep 2 Live Cells [Fold Change] ([1]; Mec-1, 1 µM, day 3): 5.46 Fold Change | Rep 3 Live Cells [Fold Change] ([1]; Mec-1, 1 µM, day 3): 6.18 Fold Change | Rep 4 Live Cells [Fold Change] ([1]; Mec-1, 1 µM, day 3): 8.87 Fold Change | Rep 1 Live Cells [Fold Change] ([1]; Mec-1, 1 µM, day 6): 54.0178 Fold Change | Rep 2 Live Cells [Fold Change] ([1]; Mec-1, 1 µM, day 6): 38.4384 Fold Change | Rep 3 Live Cells [Fold Change] ([1]; Mec-1, 1 µM, day 6): 49.852 Fold Change | Rep 4 Live Cells [Fold Change] ([1]; Mec-1, 1 µM, day 6): 61.2 Fold Change | Rep 1 Live Cells [Fold Change] ([1]; Mec-1, 1 µM, day 10): 514.04 Fold Change | Rep 2 Live Cells [Fold Change] ([1]; Mec-1, 1 µM, day 10): 244.725 Fold Change | Rep 3 Live Cells [Fold Change] ([1]; Mec-1, 1 µM, day 10): 462.377 Fold Change | Rep 4 Live Cells [Fold Change] ([1]; Mec-1, 1 µM, day 10): 387 Fold Change | Rep 1 Live Cells [Fold Change] ([1]; Mec-1, 1 µM, day 12): 1825.77 Fold Change | Rep 2 Live Cells [Fold Change] ([1]; Mec-1, 1 µM, day 12): 748.774 Fold Change | Rep 3 Live Cells [Fold Change] ([1]; Mec-1, 1 µM, day 12): 1841.8 Fold Change | Rep 4 Live Cells [Fold Change] ([1]; Mec-1, 1 µM, day 12): 1610 Fold Change | effect on growth potential (cell growth) ([1]; Mec-1, continuous exposure over 12 days): No changes in growth potential | Rep 1 Live Cells [Fold Change] ([2]; HG3, 1 nM, day 0): 1 Fold Change | Rep 2 Live Cells [Fold Change] ([2]; HG3, 1 nM, day 0): 1 Fold Change | Rep 1 Live Cells [Fold Change] ([2]; HG3, 1 nM, day 3): 5.41 Fold Change | Rep 2 Live Cells [Fold Change] ([2]; HG3, 1 nM, day 3): 6.183 Fold Change | Rep 1 Live Cells [Fold Change] ([2]; HG3, 1 nM, day 6): 37.87 Fold Change | Rep 2 Live Cells [Fold Change] ([2]; HG3, 1 nM, day 6): 41.0161 Fold Change | Rep 1 Live Cells [Fold Change] ([2]; HG3, 1 nM, day 10): 230.663 Fold Change | Rep 2 Live Cells [Fold Change] ([2]; HG3, 1 nM, day 10): 364.018 Fold Change | Rep 1 Live Cells [Fold Change] ([2]; HG3, 1 nM, day 12): 1359.37 Fold Change | Rep 2 Live Cells [Fold Change] ([2]; HG3, 1 nM, day 12): 2238.71 Fold Change | Rep 1 Live Cells [Fold Change] ([2]; HG3, 10 nM, day 0): 1 Fold Change | Rep 2 Live Cells [Fold Change] ([2]; HG3, 10 nM, day 0): 1 Fold Change | Rep 1 Live Cells [Fold Change] ([2]; HG3, 10 nM, day 3): 6.05 Fold Change | Rep 2 Live Cells [Fold Change] ([2]; HG3, 10 nM, day 3): 5.567 Fold Change | Rep 1 Live Cells [Fold Change] ([2]; HG3, 10 nM, day 6): 44.77 Fold Change | Rep 2 Live Cells [Fold Change] ([2]; HG3, 10 nM, day 6): 36.2761 Fold Change | Rep 1 Live Cells [Fold Change] ([2]; HG3, 10 nM, day 10): 317.46 Fold Change | Rep 2 Live Cells [Fold Change] ([2]; HG3, 10 nM, day 10): 308.347 Fold Change | Rep 1 Live Cells [Fold Change] ([2]; HG3, 10 nM, day 12): 1720.21 Fold Change | Rep 2 Live Cells [Fold Change] ([2]; HG3, 10 nM, day 12): 1505.76 Fold Change | Rep 1 Live Cells [Fold Change] ([2]; HG3, 100 nM, day 0): 1 Fold Change | Rep 2 Live Cells [Fold Change] ([2]; HG3, 100 nM, day 0): 1 Fold Change | Rep 3 Live Cells [Fold Change] ([2]; HG3, 100 nM, day 0): 1 Fold Change | Rep 4 Live Cells [Fold Change] ([2]; HG3, 100 nM, day 0): 1 Fold Change | Rep 1 Live Cells [Fold Change] ([2]; HG3, 100 nM, day 3): 5.29 Fold Change | Rep 2 Live Cells [Fold Change] ([2]; HG3, 100 nM, day 3): 5.42 Fold Change | Rep 3 Live Cells [Fold Change] ([2]; HG3, 100 nM, day 3): 7.7 Fold Change | Rep 4 Live Cells [Fold Change] ([2]; HG3, 100 nM, day 3): 8.317 Fold Change | Rep 1 Live Cells [Fold Change] ([2]; HG3, 100 nM, day 6): 34.2087 Fold Change | Rep 2 Live Cells [Fold Change] ([2]; HG3, 100 nM, day 6): 34.688 Fold Change | Rep 3 Live Cells [Fold Change] ([2]; HG3, 100 nM, day 6): 44.4033 Fold Change | Rep 4 Live Cells [Fold Change] ([2]; HG3, 100 nM, day 6): 58.2167 Fold Change | Rep 1 Live Cells [Fold Change] ([2]; HG3, 100 nM, day 10): 327.781 Fold Change | Rep 2 Live Cells [Fold Change] ([2]; HG3, 100 nM, day 10): 304.216 Fold Change | Rep 3 Live Cells [Fold Change] ([2]; HG3, 100 nM, day 10): 521.739 Fold Change | Rep 4 Live Cells [Fold Change] ([2]; HG3, 100 nM, day 10): 589.444 Fold Change | Rep 1 Live Cells [Fold Change] ([2]; HG3, 100 nM, day 12): 1552.37 Fold Change | Rep 2 Live Cells [Fold Change] ([2]; HG3, 100 nM, day 12): 1763.75 Fold Change | Rep 3 Live Cells [Fold Change] ([2]; HG3, 100 nM, day 12): 1182.61 Fold Change | Rep 4 Live Cells [Fold Change] ([2]; HG3, 100 nM, day 12): 2564.08 Fold Change | Rep 1 Live Cells [Fold Change] ([2]; HG3, 1 µM, day 0): 1 Fold Change | Rep 2 Live Cells [Fold Change] ([2]; HG3, 1 µM, day 0): 1 Fold Change | Rep 3 Live Cells [Fold Change] ([2]; HG3, 1 µM, day 0): 1 Fold Change | Rep 4 Live Cells [Fold Change] ([2]; HG3, 1 µM, day 0): 1 Fold Change | Rep 1 Live Cells [Fold Change] ([2]; HG3, 1 µM, day 3): 4.22 Fold Change | Rep 2 Live Cells [Fold Change] ([2]; HG3, 1 µM, day 3): 4.83 Fold Change | Rep 3 Live Cells [Fold Change] ([2]; HG3, 1 µM, day 3): 7.35 Fold Change | Rep 4 Live Cells [Fold Change] ([2]; HG3, 1 µM, day 3): 8.167 Fold Change | Rep 1 Live Cells [Fold Change] ([2]; HG3, 1 µM, day 6): 27.219 Fold Change | Rep 2 Live Cells [Fold Change] ([2]; HG3, 1 µM, day 6): 35.0658 Fold Change | Rep 3 Live Cells [Fold Change] ([2]; HG3, 1 µM, day 6): 34.79 Fold Change | Rep 4 Live Cells [Fold Change] ([2]; HG3, 1 µM, day 6): 45.4611 Fold Change | Rep 1 Live Cells [Fold Change] ([2]; HG3, 1 µM, day 10): 173.707 Fold Change | Rep 2 Live Cells [Fold Change] ([2]; HG3, 1 µM, day 10): 145.701 Fold Change | Rep 3 Live Cells [Fold Change] ([2]; HG3, 1 µM, day 10): 233.093 Fold Change | Rep 4 Live Cells [Fold Change] ([2]; HG3, 1 µM, day 10): 381.873 Fold Change | Rep 1 Live Cells [Fold Change] ([2]; HG3, 1 µM, day 12): 608.205 Fold Change | Rep 2 Live Cells [Fold Change] ([2]; HG3, 1 µM, day 12): 463.207 Fold Change | Rep 3 Live Cells [Fold Change] ([2]; HG3, 1 µM, day 12): 924.602 Fold Change | Rep 4 Live Cells [Fold Change] ([2]; HG3, 1 µM, day 12): 1559.32 Fold Change | effect on growth potential (cell growth) ([2]; HG3, continuous exposure over 12 days): No changes in growth potential | global symmetric dimethyl arginine residues (immunoblot) [3]: dose dependent global loss; also recorded: only a modest decrease
